The NIST ThermoML archive (doi:10.1016/j.tca.2015.06.017)

Experiment: xn = mol fraction of the nth substance listed
Conditions: Liquid, Vibrating tube method

CC(C)(C)Cl [2-chloro-2-methylpropane] + CCCCCCC
mass density [kg/m3]
Conditions	303.15 K	313.15 K	323.15 K
100 kPa, x2 = 0.0554	818.78	806.66	794.33
100 kPa, x2 = 0.1017	809.14	797.28	785.21
100 kPa, x2 = 0.2004	789.72	778.36	766.79
100 kPa, x2 = 0.3016	771.27	760.35	749.26
100 kPa, x2 = 0.4097	753.07	742.58	731.93
100 kPa, x2 = 0.498	739.29	729.11	718.79
100 kPa, x2 = 0.5983	724.71	714.88	704.9
100 kPa, x2 = 0.7017	710.79	701.3	691.67
100 kPa, x2 = 0.7995	698.55	689.36	680.04
100 kPa, x2 = 0.9032	686.4	677.52	668.52
100 kPa, x2 = 0.9482	681.35	672.6	663.72
2000 kPa, x2 = 0.0554	821.47	809.52	797.48
2000 kPa, x2 = 0.1017	811.82	800.05	788.27
2000 kPa, x2 = 0.2004	792.22	781	769.77
2000 kPa, x2 = 0.3016	773.66	763.03	752.1
2000 kPa, x2 = 0.4097	755.51	745.07	734.59
2000 kPa, x2 = 0.498	741.69	731.68	721.4
2000 kPa, x2 = 0.5983	727.08	717.4	707.53
2000 kPa, x2 = 0.7017	713.01	703.64	694.11
2000 kPa, x2 = 0.7995	700.74	691.69	682.44
2000 kPa, x2 = 0.9032	688.51	679.76	670.78
2000 kPa, x2 = 0.9482	683.42	674.8	665.93
5000 kPa, x2 = 0.0554	825.59	813.98	802.32
5000 kPa, x2 = 0.1017	815.8	804.42	793.03
5000 kPa, x2 = 0.2004	796.16	785.28	774.28
5000 kPa, x2 = 0.3016	777.4	767.03	756.52
5000 kPa, x2 = 0.4097	759.02	749.04	738.91
5000 kPa, x2 = 0.498	745.08	735.25	725.49
5000 kPa, x2 = 0.5983	730.47	720.98	711.44
5000 kPa, x2 = 0.7017	716.37	707.1	697.95
5000 kPa, x2 = 0.7995	703.86	695.02	686.17
5000 kPa, x2 = 0.9032	691.56	682.92	674.4
5000 kPa, x2 = 0.9482	686.48	677.95	669.52
7000 kPa, x2 = 0.0554	828.15	816.75	805.4
7000 kPa, x2 = 0.1017	818.38	807.19	796.06
7000 kPa, x2 = 0.2004	798.56	787.92	777.25
7000 kPa, x2 = 0.3016	779.88	769.57	759.21
7000 kPa, x2 = 0.4097	761.39	751.4	741.54
7000 kPa, x2 = 0.498	747.28	737.68	728.22
7000 kPa, x2 = 0.5983	732.58	723.34	714.07
7000 kPa, x2 = 0.7017	718.4	709.4	700.51
7000 kPa, x2 = 0.7995	705.86	697.26	688.53
7000 kPa, x2 = 0.9032	693.5	685.15	676.71
7000 kPa, x2 = 0.9482	688.38	680.11	671.83
10000 kPa, x2 = 0.0554	832	820.74	809.88
10000 kPa, x2 = 0.1017	822.04	811.13	800.36
10000 kPa, x2 = 0.2004	802.32	791.72	781.49
10000 kPa, x2 = 0.3016	783.29	773.41	763.36
10000 kPa, x2 = 0.4097	764.7	754.97	745.37
10000 kPa, x2 = 0.498	750.6	741.18	731.85
10000 kPa, x2 = 0.5983	735.66	726.57	717.55
10000 kPa, x2 = 0.7017	721.43	712.75	703.96
10000 kPa, x2 = 0.7995	708.91	700.32	691.76
10000 kPa, x2 = 0.9032	696.4	688.14	679.93
10000 kPa, x2 = 0.9482	691.28	683.1	674.96
20000 kPa, x2 = 0.0554	843.57	833.07	823.12
20000 kPa, x2 = 0.1017	833.51	823.38	813.35
20000 kPa, x2 = 0.2004	813.29	803.53	794.06
20000 kPa, x2 = 0.3016	793.94	784.77	775.49
20000 kPa, x2 = 0.4097	774.96	766.04	757.06
20000 kPa, x2 = 0.498	760.6	751.92	743.41
20000 kPa, x2 = 0.5983	745.27	737.01	728.54
20000 kPa, x2 = 0.7017	730.77	722.7	714.57
20000 kPa, x2 = 0.7995	717.92	709.98	702.11
20000 kPa, x2 = 0.9032	705.2	697.53	689.93
20000 kPa, x2 = 0.9482	699.94	692.28	684.86
30000 kPa, x2 = 0.0554	853.99	844.1	834.6
30000 kPa, x2 = 0.1017	843.73	834.2	824.82
30000 kPa, x2 = 0.2004	823.05	814.01	805.07
30000 kPa, x2 = 0.3016	803.47	794.87	786.11
30000 kPa, x2 = 0.4097	784.21	775.79	767.3
30000 kPa, x2 = 0.498	769.56	761.41	753.1
30000 kPa, x2 = 0.5983	753.98	746.13	738.15
30000 kPa, x2 = 0.7017	739.18	731.52	723.78
30000 kPa, x2 = 0.7995	726.07	718.59	711.07
30000 kPa, x2 = 0.9032	713.06	705.89	698.64
30000 kPa, x2 = 0.9482	707.83	700.51	693.47
40000 kPa, x2 = 0.0554	863.35	854.03	844.99
40000 kPa, x2 = 0.1017	852.88	843.96	835.05
40000 kPa, x2 = 0.2004	832.1	823.46	814.92
40000 kPa, x2 = 0.3016	812.13	804.15	795.67
40000 kPa, x2 = 0.4097	792.62	784.83	776.64
40000 kPa, x2 = 0.498	777.76	770.02	762.18
40000 kPa, x2 = 0.5983	761.89	754.48	746.92
40000 kPa, x2 = 0.7017	746.9	739.67	732.28
40000 kPa, x2 = 0.7995	733.47	726.54	719.25
40000 kPa, x2 = 0.9032	720.32	713.51	706.58
40000 kPa, x2 = 0.9482	714.92	708.05	701.31
50000 kPa, x2 = 0.0554	871.81	862.97	854.39
50000 kPa, x2 = 0.1017	861.28	852.84	844.39
50000 kPa, x2 = 0.2004	840.18	832.15	823.81
50000 kPa, x2 = 0.3016	820.14	812.43	804.37
50000 kPa, x2 = 0.4097	800.42	792.76	785.03
50000 kPa, x2 = 0.498	785.33	777.91	770.31
50000 kPa, x2 = 0.5983	769.3	762.19	754.82
50000 kPa, x2 = 0.7017	753.99	747.09	739.94
50000 kPa, x2 = 0.7995	740.47	733.8	726.85
50000 kPa, x2 = 0.9032	727.09	720.62	713.88
50000 kPa, x2 = 0.9482	721.65	715.12	708.52
60000 kPa, x2 = 0.0554	879.84	871.31	863.07
60000 kPa, x2 = 0.1017	869.24	861.07	852.83
60000 kPa, x2 = 0.2004	847.92	840.18	832.16
60000 kPa, x2 = 0.3016	827.68	820.2	812.47
60000 kPa, x2 = 0.4097	807.57	800.35	792.82
60000 kPa, x2 = 0.498	792.31	785.26	778.02
60000 kPa, x2 = 0.5983	776.11	769.28	762.27
60000 kPa, x2 = 0.7017	760.58	753.92	747.09
60000 kPa, x2 = 0.7995	746.99	740.45	733.8
60000 kPa, x2 = 0.9032	733.41	727.14	720.67
60000 kPa, x2 = 0.9482	727.85	721.6	715.25
65000 kPa, x2 = 0.0554	883.64	875.25	867.24
65000 kPa, x2 = 0.1017	872.96	864.95	856.84
65000 kPa, x2 = 0.2004	851.56	843.84	836.1
65000 kPa, x2 = 0.3016	831.16	823.81	816.3
65000 kPa, x2 = 0.4097	810.96	803.85	796.58
65000 kPa, x2 = 0.498	795.68	788.68	781.6
65000 kPa, x2 = 0.5983	779.38	772.62	765.81
65000 kPa, x2 = 0.7017	763.77	757.22	750.52
65000 kPa, x2 = 0.7995	749.98	743.57	737.12
65000 kPa, x2 = 0.9032	736.38	730.17	723.9
65000 kPa, x2 = 0.9482	730.82	724.57	718.48
